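Protocol summary: plate cells (96-well), add compound at 5 concentrations, incubate 48 h, interpolate endpoints linearly. GI50 is the concentration that inhibits growth by half.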 Active and inactive are the calls of the source. Cut-off read from the data, not from the text of the source: active = GI50 up to about 1.1 µM and inactive = higher.
What was measured:
Test in all cases: NCI tumour cell line growth inhibition, 48 h
HT-29 = test system: HT-29
DLD-1 = test system: DLD-1
SNB-78 = test system: SNB-78
UACC-62 = test system: UACC-62
HL-60 = test system: HL-60
DMS-114 = test system: DMS-114
M19-MEL = test system: M19-MEL
U-251 = test system: U-251
NCI-H23 = test system: NCI-H23
HCC 2998 = test system: HCC 2998
LXFL 529 = test system: LXFL 529
CCRF-CEM = test system: CCRF-CEM
MOLT-4 = test system: MOLT-4
TK-10 = test system: TK-10
KM12 = test system: KM12
OVCAR-3 = test system: OVCAR-3
NCI-H522 = test system: NCI-H522
EKVX = test system: EKVX
SNB-19 = test system: SNB-19
786-0 = test system: 786-0
OVCAR-5 = test system: OVCAR-5
UO-31 = test system: UO-31
SF-268 = test system: SF-268
M14 = test system: M14
IGROV-1 = test system: IGROV-1
HCT-116 = test system: HCT-116
SNB-75 = test system: SNB-75
CAKI-1 = test system: CAKI-1
UACC-257 = test system: UACC-257
OVCAR-4 = test system: OVCAR-4
K562 = test system: K562
SN12C = test system: SN12C
A498 = test system: A498
HOP-18 = test system: HOP-18
SK-MEL-5 = test system: SK-MEL-5
LOX IMVI = test system: LOX IMVI
HOP-62 = test system: HOP-62
NCI-H226 = test system: NCI-H226
RXF 393 = test system: RXF 393
DMS-273 = test system: DMS-273
COLO 205 = test system: COLO 205
ACHN = test system: ACHN
OVCAR-8 = test system: OVCAR-8
XF498 = test system: XF498
NCI-H460 = test system: NCI-H460
SK-MEL-28 = test system: SK-MEL-28
SF-295 = test system: SF-295
KM-20L2 = test system: KM-20L2
SF-539 = test system: SF-539
SW-620 = test system: SW-620
Malme-3M = test system: Malme-3M
A549 = test system: A549
HCT-15 = test system: HCT-15
RXF 631 = test system: RXF 631
HOP-92 = test system: HOP-92
SK-OV-3 = test system: SK-OV-3
SK-MEL-2 = test system: SK-MEL-2

With `COc1ccccc1/N=N/c1c(-c2ccccc2)nn(C(=O)CC(=O)Nc2cccc(C)c2)c1-c1ccccc1` the GI50 (HT-29) was 16.4 µM (inactive), the GI50 (DLD-1) was 25.8 µM (inactive) and the GI50 (SNB-78) was 61.8 µM (inactive). The GI50 (UACC-62) was 38.8 µM (inactive), the GI50 (HL-60) was 15.3 µM (inactive) and the GI50 (DMS-114) was 14.7 µM (inactive). The GI50 (M19-MEL) was 35.8 µM (inactive), the GI50 (U-251) was 20 µM (inactive) and the GI50 (NCI-H23) was 24.1 µM (inactive). The GI50 (HCC 2998) was 42 µM (inactive), the GI50 (LXFL 529) was 15.4 µM (inactive) and the GI50 (CCRF-CEM) was 15.2 µM (inactive). For the same compound, the GI50 (MOLT-4) was 10.7 µM (inactive), the GI50 (TK-10) was 72.1 µM (inactive) and the GI50 (KM12) was 26.1 µM (inactive). The GI50 (OVCAR-3) was 16 µM (inactive), the GI50 (NCI-H522) was 16.4 µM (inactive) and the GI50 (EKVX) was 41.2 µM (inactive). For the same compound, the GI50 (SNB-19) was 27.2 µM (inactive), the GI50 (786-0) was 43.1 µM (inactive) and the GI50 (OVCAR-5) was 36.3 µM (inactive). For the same compound, the GI50 (UO-31) was 19.7 µM (inactive), the GI50 (SF-268) was 39.4 µM (inactive) and the GI50 (M14) was 14.7 µM (inactive). The GI50 (IGROV-1) was 24.7 µM (inactive), the GI50 (HCT-116) was 28 µM (inactive) and the GI50 (SNB-75) was 11.8 µM (inactive). For the same compound, the GI50 (CAKI-1) was 23.3 µM (inactive), the GI50 (UACC-257) was 27.3 µM (inactive) and the GI50 (OVCAR-4) was 28.6 µM (inactive). For the same compound, the GI50 (K562) was 15.7 µM (inactive), the GI50 (SN12C) was 20.8 µM (inactive) and the GI50 (A498) was 40 µM (inactive). The GI50 (HOP-18) was > 100 µM (inactive), the GI50 (SK-MEL-5) was 18.7 µM (inactive) and the GI50 (LOX IMVI) was 27.5 µM (inactive). The GI50 (HOP-62) was 19.1 µM (inactive), the GI50 (NCI-H226) was 36.3 µM (inactive) and the GI50 (RXF 393) was 53.3 µM (inactive). The GI50 (DMS-273) was 34.5 µM (inactive), the GI50 (COLO 205) was 71.3 µM (inactive) and the GI50 (ACHN) was 28.4 µM (inactive). The GI50 (OVCAR-8) was 31.2 µM (inactive), the GI50 (XF498) was 16.4 µM (inactive) and the GI50 (NCI-H460) was 27.2 µM (inactive). The GI50 (SK-MEL-28) was > 100 µM (inactive), the GI50 (SF-295) was 28.2 µM (inactive) and the GI50 (KM-20L2) was 27.3 µM (inactive). For the same compound, the GI50 (SF-539) was 30 µM (inactive), the GI50 (SW-620) was 41.3 µM (inactive) and the GI50 (Malme-3M) was 45.6 µM (inactive). The GI50 (A549) was 26.5 µM (inactive), the GI50 (HCT-15) was 21.1 µM and the GI50 (RXF 631) was 7.4 µM (inactive).

In the case of `CCOC(=O)CC1=CSC2=NCCN12`, the GI50 (HT-29) is reported as > 100 µM (inactive), the GI50 (DLD-1) is reported as > 100 µM (inactive) and the GI50 (SNB-78) is reported as > 100 µM (inactive). For the same compound, the GI50 (UACC-62) was > 100 µM (inactive), the GI50 (HL-60) was > 100 µM (inactive) and the GI50 (DMS-114) was > 100 µM (inactive). For the same compound, the GI50 (M19-MEL) was > 100 µM (inactive), the GI50 (U-251) was > 100 µM (inactive) and the GI50 (NCI-H23) was > 100 µM (inactive). For the same compound, the GI50 (HCC 2998) was > 100 µM (inactive), the GI50 (LXFL 529) was > 100 µM (inactive) and the GI50 (CCRF-CEM) was > 100 µM (inactive). For the same compound, the GI50 (TK-10) was > 100 µM (inactive), the GI50 (KM12) was > 100 µM (inactive) and the GI50 (OVCAR-3) was > 100 µM (inactive). The GI50 (NCI-H522) was > 100 µM (inactive), the GI50 (HOP-92) was > 100 µM (inactive) and the GI50 (EKVX) was > 100 µM (inactive). For the same compound, the GI50 (SNB-19) was > 100 µM (inactive), the GI50 (786-0) was > 100 µM (inactive) and the GI50 (OVCAR-5) was > 100 µM (inactive). The GI50 (UO-31) was > 100 µM (inactive), the GI50 (SF-268) was > 100 µM (inactive) and the GI50 (M14) was > 100 µM (inactive). For the same compound, the GI50 (IGROV-1) was > 100 µM (inactive), the GI50 (HCT-116) was > 100 µM (inactive) and the GI50 (SNB-75) was > 100 µM (inactive). The GI50 (CAKI-1) was > 100 µM (inactive), the GI50 (UACC-257) was > 100 µM (inactive) and the GI50 (OVCAR-4) was > 100 µM (inactive). For the same compound, the GI50 (K562) was > 100 µM (inactive), the GI50 (SN12C) was > 100 µM (inactive) and the GI50 (A498) was > 100 µM (inactive). The GI50 (HOP-18) was > 100 µM (inactive), the GI50 (SK-MEL-5) was > 100 µM (inactive) and the GI50 (LOX IMVI) was > 100 µM (inactive). The GI50 (HOP-62) was > 100 µM (inactive), the GI50 (NCI-H226) was > 100 µM (inactive) and the GI50 (RXF 393) was > 100 µM (inactive). For the same compound, the GI50 (DMS-273) was > 100 µM (inactive), the GI50 (COLO 205) was > 100 µM (inactive) and the GI50 (SK-OV-3) was > 100 µM (inactive). The GI50 (ACHN) was > 100 µM (inactive), the GI50 (OVCAR-8) was > 100 µM (inactive) and the GI50 (XF498) was > 100 µM (inactive). For the same compound, the GI50 (NCI-H460) was > 100 µM (inactive), the GI50 (SK-MEL-28) was > 100 µM (inactive) and the GI50 (SF-295) was > 100 µM (inactive). The GI50 (KM-20L2) was > 100 µM (inactive), the GI50 (SK-MEL-2) was > 100 µM (inactive) and the GI50 (SF-539) was > 100 µM (inactive). For the same compound, the GI50 (SW-620) was > 100 µM (inactive), the GI50 (Malme-3M) was > 100 µM (inactive) and the GI50 (A549) was > 100 µM (inactive). The GI50 (HCT-15) was > 100 µM and the GI50 (RXF 631) was > 100 µM (inactive).

Reference: ChEMBL document CHEMBL1201862, “PubChem BioAssay data set” (2004)
